Source: ChEMBL document CHEMBL1201862, “PubChem BioAssay data set” (2004)
Active and inactive are the calls of the source. Cut-off read from the data, not from the text of the source, for most assays here: actives have a measured EC50 and inactives only a lower limit.

Assays:
Streptokinase A = target: T1, Streptokinase A (Streptococcus pyogenes serotype M1, UniProt P10520); test: S. pyogenes streptokinase expression inhibitors, potency, dose response, plasminogen activation absorbance, OD405 (AID 1914); format: functional, Streptococcus pyogenes M1 GAS;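 note: secreted streptokinase activity via plasminogen activation per viability signal from cell pellet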
T1 sequence (P10520 whole entry): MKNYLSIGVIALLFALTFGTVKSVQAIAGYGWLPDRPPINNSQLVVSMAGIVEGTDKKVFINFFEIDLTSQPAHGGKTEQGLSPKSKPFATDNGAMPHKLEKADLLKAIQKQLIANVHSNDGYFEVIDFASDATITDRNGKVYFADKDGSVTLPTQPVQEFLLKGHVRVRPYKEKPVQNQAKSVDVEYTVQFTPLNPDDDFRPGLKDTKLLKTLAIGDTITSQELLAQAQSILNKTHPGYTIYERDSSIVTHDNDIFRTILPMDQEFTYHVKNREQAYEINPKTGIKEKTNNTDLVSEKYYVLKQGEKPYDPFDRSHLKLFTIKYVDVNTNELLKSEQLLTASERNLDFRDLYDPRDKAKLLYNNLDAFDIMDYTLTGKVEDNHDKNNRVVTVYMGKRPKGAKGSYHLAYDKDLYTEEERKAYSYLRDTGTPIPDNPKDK

Streptococcus = test: Group A Streptococcus viability loss, dose response, counter-screen for streptokinase expression inhibitor project, luminescence, BacTiterGlo (AID 1915); format: functional, organism-based;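 note: potency for reduction of bacterial viability or growth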
INS1 = test: beta cell apoptosis inhibitors, cytokine rescue, dose response, luminescence, retest (AID 449756); format: functional, cell-based; conditions: Rattus norvegicus;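 note: cell death triggered by IL-1 beta plus TNF-alpha plus IFN-gamma mixture; protective hits raise ATP signal compared with cytokine alone wells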

| SMILES | EC50 (Streptokinase A) | EC50 (Streptococcus) | AC50 (INS1) |
| --- | --- | --- | --- |
| COc1ccc(CNC(=O)c2c(C)oc3c2C(=O)c2ccccc2C3=O)cc1 | > 150 µM (not active) | 6.35 µM (active) | 2.8 µM (active) |
| CCSc1nsc(NC(=O)Nc2cccc(F)c2)n1 | 40.5 µM (active) | 20.7 µM (active) |  |
| O=[N+]([O-])c1ccc(/C=N/n2cnc3ccccc32)s1 |  |  | 2.6 µM (active) |
